Experimental data taken from patent publication US20060004002A1 (priority 2004, published 2006).

molecular target: T1, Recombinant human Src (Homo sapiens, UniProt P12931); assay: Src tyrosine kinase activity assay with poly E4Y and 32P-ATP; format: biochemical; settings: poly E4Y, 32P-ATP; NI = no inhibition; read-out: IC50 Value Src
T1 construct: made in house; host or cells: baculovirus-insect cell system
Description: Recombinant human Src was expressed using the baculovirus-insect cell system and purified as published (Budde et al., 1993 and 2000). Recombinant Csk and the FGF receptor (FGFr) were expressed as […] fusion proteins using the pGEX expression vector and E. coli, and purified as described (Sun & Budde, 1995).
The tyrosine kinase activity of Src, Csk and FGFr was determined using poly E4Y and ^32P-ATP. Briefly, enzymes were assayed in a reaction mixture […] consisting of 0.15 M EPPS-NaOH (pH 8.0) with 6 mM MgCl2, 0.2 mM γ^32P-ATP (0.2-0.4 mCi/μmol), 10% glycerol, 0.1% Triton X-100, and poly E4Y. Poly E4Y is a synthetic peptide whose phosphorylation is measured in this assay by the addition of the radioactively labeled phosphate from the ATP (Budde et al., 1995). […] When ATP was varied (0, 50, 100 and 250 μM), poly E4Y was kept constant at 150 μg/ml.

Compound	IC50
CCOc1ccccc1-c1sc2c(NN=Cc3ccc(OC)c(O)c3)ncnc2c1COCC(O)CO (racemic) [Compound 56, 3-Hydroxy-4-methoxybenzaldehyde(7-((±)-4,5-dihydroxy-2-oxopentyl) (6-(2-ethoxyphenyl)thieno[3,2-d]pyrimidin-4-yl)hydrazone]	120 nM
CCOc1ccccc1-c1sc2c(NN=Cc3ccc(OC)c(OCCN(CC)CC)c3)ncnc2c1C (single isomer, unassigned) [Compound 158]	0.015 nM
COc1ccc(C=NNc2ncnc3c(C)c(-c4ccc(CN)cc4)sc23)cc1O [Compound 5, 3-Hydroxy-4-methoxybenzaldehyde (6-(4-aminomethyl)phenyl-7-methylthieno[3,2-d]pyrimidin-4-yl)hydrazone]	32 nM
Cc1c(-c2cccc(CN)c2)sc2c(NN=Cc3cccnc3)ncnc12 [Compound 6, 3-Pyridinecarboxaldehyde (6-(3-aminomethyl)phenyl-7-methylthieno[3,2-d]pyrimidin-4-yl)hydrazone]	16 nM
COc1ccc(C=NNc2ncnc3c(C)c(-c4ccc(N)cc4)sc23)cc1O [Compound 10, 3-Hydroxy-4-methoxybenzaldehyde (6-(4-aminophenyl)-7-methylthieno[3,2-d]pyrimidin-4-yl)hydrazone]	8.7 nM
Cc1c(-c2cccc(N)c2)sc2c(NN=Cc3cccnc3)ncnc12 [Compound 11, 3-Pyridinecarboxaldehyde (6-(3-aminophenyl)-7-methylthieno[3,2-d]pyrimidin-4-yl)hydrazone]	4.9 nM
COc1ccc(C=NNc2ncnc3c(C)c(-c4ccccc4N)sc23)cc1O [Compound 13, 3-Hydroxy-4-methoxybenzaldehyde (6-(2-aminophenyl)-7-methylthieno[3,2-d]pyrimidin-4-yl)hydrazone]	38 nM
COc1ccc(C=NNc2ncnc3c(C)c(-c4cccc(C(N)=O)c4)sc23)cc1O [Compound 19, 3-Hydroxy-4-methoxybenzaldehyde (6-(3-aminocarbonylphenyl)-7-methylthieno[3,2-d]pyrimidin-4-yl)hydrazone]	14 nM
Cc1c(-c2cccc(C(N)=O)c2)sc2c(NN=Cc3ccc(C(=O)O)cc3)ncnc12 [Compound 22, 4-Carboxybenzaldehyde (6-(3-aminocarbonylphenyl)-7-methylthieno[3,2-d]pyrimidin-4-yl)hydrazone]	41 nM
COc1ccc(C=NNc2ncnc3c(C)c(-c4ccc(C(N)=O)cc4)sc23)cc1O [Compound 23, 3-Hydroxy-4-methoxybenzaldehyde (6-(4-aminocarbonylphenyl)-7-methylthieno[3,2-d]pyrimidin-4-yl)hydrazone]	20 nM
Cc1c(-c2ccc(C(N)=O)cc2)sc2c(NN=Cc3cccnc3)ncnc12 [Compound 24, 3-Pyridinecarboxaldehyde (6-(4-aminocarbonylphenyl)-7-methylthieno[3,2-d]pyrimidin-4-yl)hydrazone]	13 nM
Cc1c(-c2ccc(C(N)=O)cc2)sc2c(NN=Cc3cccs3)ncnc12 [Compound 25, 2-Thiophenecarboxaldehyde (6-(4-aminocarbonylphenyl)-7-methylthieno[3,2-d]pyrimidin-4-yl)hydrazone]	26 nM
Cc1c(-c2cccc(C#N)c2)sc2c(NN=Cc3cccs3)ncnc12 [Compound 28, 2-Thiophenecarboxaldehyde (6-(3-cyanophenyl)-7-methylthieno[3,2-d]pyrimidin-4-yl)hydrazone]	1400 nM
COc1ccc(C=NNc2ncnc3c(C)c(-c4ccccc4C#N)sc23)cc1O [Compound 31, 3-Hydroxy-4-methoxybenzaldehyde (6-(2-cyanophenyl)-7-methylthieno[3,2-d]pyrimidin-4-yl)hydrazone]	74 nM
Cc1c(-c2cccc(C(=N)N)c2)sc2c(NN=Cc3cccnc3)ncnc12 [Compound 32]	41 nM
CCOCc1c(-c2ccccc2OCC)sc2c(NN=Cc3ccc(OC)c(O)c3)ncnc12 [Compound 44]	79 nM

Second part, the compound after the results:

IC50	Compound
24 nM	4-Carboxybenzaldehyde (6-(4-aminomethyl)phenyl-7-methylthieno[3,2-d]pyrimidin-4-yl)hydrazone [Compound 2]
24 nM	Cc1c(-c2ccc(CN)cc2)sc2c(NN=Cc3cccnc3)ncnc12 [Compound 3, 3-Pyridinecarboxaldehyde (6-(4-aminomethyl)phenyl-7-methylthieno[3,2-d]pyrimidin-4-yl)hydrazone]
28 nM	Cc1c(-c2ccc(CN)cc2)sc2c(NN=Cc3cccs3)ncnc12 [Compound 4, 2-Thiophenecarboxaldehyde (6-(4-aminomethyl)phenyl-7-methylthieno[3,2-d]pyrimidin-4-yl)hydrazone]
120 nM	COc1ccc(C=NNc2ncnc3c(C)c(-c4ccccc4CN)sc23)cc1O [Compound 7, 3-Hydroxy-4-methoxybenzaldehyde (6-(2-aminomethyl)phenyl-7-methylthieno[3,2-d]pyrimidin-4-yl)hydrazone]
9.6 nM	Cc1c(-c2ccc(N)cc2)sc2c(NN=Cc3cccnc3)ncnc12 [Compound 8, 3-Pyridinecarboxaldehyde (6-(4-aminophenyl)-7-methylthieno[3,2-d]pyrimidin-4-yl)hydrazone]
19 nM	Cc1c(-c2ccc(N)cc2)sc2c(NN=Cc3cccs3)ncnc12 [Compound 9, 2-Thiophenecarboxaldehyde (6-(4-aminophenyl)-7-methylthieno[3,2-d]pyrimidin-4-yl)hydrazone]
1.2 nM	COc1ccc(C=NNc2ncnc3c(C)c(-c4cccc(N)c4)sc23)cc1O [Compound 12, 3-Hydroxy-4-methoxybenzaldehyde (6-(3-aminophenyl)-7-methylthieno[3,2-d]pyrimidin-4-yl)hydrazone]
320 nM	Cc1c(CN2CCOCC2)sc2c(NN=Cc3cccnc3)ncnc12 [Compound 15, 3-Pyridinecarboxaldehyde (7-methyl-6-(morpholin-4-yl)methyllthieno[3,2-d]pyrimidin-4-yl)hydrazone]
620 nM	Cc1nc[nH]c1C=NNc1ncnc2c(C)c(CN3CCOCC3)sc12 [Compound 16, 4-Methyl-5-imidazolecarboxaldehyde (7-methyl-6-(morpholin-4-yl)methyllthieno[3,2-d]pyrimidin-4-yl)hydrazone]
26 nM	COc1ccc(C=NNc2ncnc3c(C)c(-c4cccc(CN5CCOCC5)c4)sc23)cc1O [Compound 17, 3-Hydroxy-4-methoxybenzaldehyde (7-methyl-6-(3-(morpholin-4-yl)methyl)phenylthieno[3,2-d]pyrimidin-4-yl)hydrazone]
550 nM	COc1ccc(C=NNc2ncnc3c(C)c(CNc4ccccc4)sc23)cc1O [Compound 18]
54 nM	Cc1c(-c2cccc(C(N)=O)c2)sc2c(NN=Cc3cccs3)ncnc12 [Compound 20, 2-Thiophenecarboxaldehyde (6-(3-aminocarbonylphenyl)-7-methylthieno[3,2-d]pyrimidin-4-yl)hydrazone]
91 nM	Cc1c(-c2cccc(C(N)=O)c2)sc2c(NN=Cc3cccnc3)ncnc12 [Compound 21, 3-Pyridinecarboxaldehyde (6-(3-aminocarbonylphenyl)-7-methylthieno[3,2-d]pyrimidin-4-yl)hydrazone]
36 nM	Cc1c(-c2ccc(C(N)=O)cc2)sc2c(NN=Cc3ccc(C(=O)O)cc3)ncnc12 [Compound 26, 4-Carboxybenzaldehyde (6-(4-aminocarbonylphenyl)-7-methylthieno[3,2-d]pyrimidin-4-yl)hydrazone]
58 nM	COc1ccc(C=NNc2ncnc3c(C)c(-c4cccc(C#N)c4)sc23)cc1O [Compound 27, 3-Hydroxy-4-methoxybenzaldehyde (6-(3-cyanophenyl)-7-methylthieno[3,2-d]pyrimidin-4-yl)hydrazone]
27 nM	Cc1c(-c2cccc(C#N)c2)sc2c(NN=Cc3cccnc3)ncnc12 [Compound 29, 3-Pyridinecarboxaldehyde (6-(3-cyanophenyl)-7-methylthieno[3,2-d]pyrimidin-4-yl)hydrazone]
160 nM	Cc1c(-c2cccc(C#N)c2)sc2c(NN=Cc3ccc(C(=O)O)cc3)ncnc12 [Compound 30, 4-Carboxybenzaldehyde (6-(3-cyanophenyl)-7-methylthieno[3,2-d]pyrimidin-4-yl)hydrazone]
57 nM	COc1ccc(C=NNc2ncnc3c(C)c(-c4ccc(F)cc4)sc23)cc1O [Compound 36, 3-Hydroxy-4-methoxybenzaldehyde (6-(4-fluorophenyl)-7-methylthieno[3,2-d]pyrimidin-4-yl)hydrazone]
15 nM	COc1ccc(C=NNc2ncnc3c(C)c(-c4ccc(O)cc4)sc23)cc1O [Compound 38, 3-Hydroxy-4-methoxybenzaldehyde (6-(4-hydroxyphenyl)-7-methylthieno[3,2-d]pyrimidin-4-yl)hydrazone]
22 nM	CCOc1ccccc1-c1sc2c(NN=Cc3ccc(OC)c(O)c3)ncnc2c1OC [Compound 40, 3-Hydroxy-4-methoxybenzaldehyde (6-(2-ethoxyphenyl)-7-methoxythieno[3,2-d]pyrimidin-4-yl)hydrazone]
340 nM	CCOc1ccccc1-c1sc2c(NN=Cc3ccc(OC)c(O)c3)ncnc2c1OCCN1CCOCC1 [Compound 41, 3-Hydroxy-4-methoxybenzaldehyde (6-(2-ethoxyphenyl)-7-(2-(morpholin-4-yl)-ethoxy)thieno[3,2-d]pyrimidin-4-yl)hydrazone]
